Measurements from patent US7265130B2, “NPY Y5 antagonist” (Shionogi & Co., Ltd., priority 1999, dated 2007).

Legend:
human NPY Y5 receptor [1] = target: T1, human NPY Y5 receptor (Homo sapiens, UniProt Q15761); assay: cAMP production inhibitory activity in CHO cells; type: cell-based; conditions: against 50 nM NPY inhibition of forskolin stimulated cAMP, CHO cells expressing human NPY Y5 receptor
T1 construct: expressed in transfected cells
T1 sequence (Q15761 1-445): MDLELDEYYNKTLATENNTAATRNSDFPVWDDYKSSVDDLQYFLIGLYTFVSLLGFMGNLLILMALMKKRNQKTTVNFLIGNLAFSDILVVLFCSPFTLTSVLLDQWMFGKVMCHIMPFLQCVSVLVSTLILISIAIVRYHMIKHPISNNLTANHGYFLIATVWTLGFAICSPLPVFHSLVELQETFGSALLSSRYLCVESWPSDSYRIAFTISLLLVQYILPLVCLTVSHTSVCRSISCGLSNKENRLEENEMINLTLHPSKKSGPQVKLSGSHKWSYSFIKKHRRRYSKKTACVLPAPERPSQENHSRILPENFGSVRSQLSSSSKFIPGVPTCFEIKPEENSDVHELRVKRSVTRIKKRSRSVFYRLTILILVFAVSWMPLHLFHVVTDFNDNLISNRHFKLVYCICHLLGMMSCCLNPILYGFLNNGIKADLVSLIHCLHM
Method: Experiment 2 cAMP production inhibitory activity in CHO cells
After CHO cells expressing human NPY Y5 receptor were incubated in the presence of 2.5 mM isobutylmethylxanthine (SIGMA) at 37° C. for 20 min., the compound of the present invention was added and incubated for 5 min. Then, 50 nM NPY and 10 μM forskolin (SIGMA) were added to the cells and incubated for 30 min. After the reaction was terminated by adding 1N HCl, the amount of cAMP in the supernatant was measured with EIA kit (Amersham LIFE SCIENCE).

human NPY Y5 receptor [2] = target: T1, human NPY Y5 receptor; assay: Affinity for NPY Y5 receptor ([125I] peptide YY binding, CHO cell membranes); conditions: inhibition of specific [125I] peptide YY binding, membranes of CHO cells expressing NPY Y5 receptor
Source text: Experiment 1 Affinity for NPY Y5 Receptor
cDNA sequence encoding a human NPY Y5 receptor (WO096/16542) was cloned in the expression vector pME18S (Takebe et al. Mol. Cell. Biol. 8, 8957). The obtained expression vector was transfected into a host CHO cells by using a Lipofect AMINE reagent (Trademark, Gibco BRL Co., Ltd.) according to an instruction protocol to obtain the cells that stably express NPY Y5 receptor.
The membranes prepared from the above CHO cells expressing NPY Y5 receptor, the compound of the present invention and 30,000 cpm [^125I] peptide YY (60 pM of final concentration: Amersham) were incubated in the assay buffer (20 mM HEPES-Hanks buffer containing 0.1% bovine serum albumin, pH 7.4) at 25° C. for 2 hours, and then the mixture was filtered with a glassfilter GF/C treated with polyethyleneimine. After the glassfilter was washed with 50 mM Tris-HCl buffer (pH 7.4), the radioactivity on the filter was measured with a gamma counter. The non-specific binding was detected in the presence of 200 nM of peptide YY. The 50% inhibitory concentration of the test compound against the specific peptide YY binding (IC50 value) was calculated (Inui, A. et al. Endocrinology 131, 2090-2096 (1992)).

Row | Compound | IC50 (human NPY Y5 receptor [1]) | IC50 (human NPY Y5 receptor [2])
1 | CC(C)(C)S(=O)(=O)NC1CCC(C(=O)Nc2ccc(N(CCO)CCO)cc2)CC1 (stereo not drawn) [Compound I-86] | 100 nM | 3.4 nM
2 | COC(=O)CCCc1ccc(NC(=O)C2CCC(NS(=O)(=O)C(C)(C)C)CC2)cc1 (stereo not drawn) [Compound I-87] | 21 nM | 0.66 nM
3 | CC(C)(C)S(=O)(=O)NC1CCC(C(=O)Nc2ccc(N3CCC(O)C3)cc2)CC1 (stereo not drawn) [Compound I-90] | 50 nM | 2.8 nM
4 | CCCCc1ccc(NC(=O)c2ccc(N[S+]([O-])C(C)(C)Cl)cc2)cc1 (stereo not drawn) [Compound I-92] | 61 nM | 7 nM
5 | CCCCc1ccc(NC(=O)c2ccc(N[S+]([O-])C(C)(C)C)cc2)cc1 (stereo not drawn) [Compound I-101] | 38 nM | 3.9 nM
6 | CCCCc1ccc(NC(=O)c2ccc(NS(=O)(=O)C(C)(C)C)cc2)cc1 [Compound I-102] | 14 nM | 1.7 nM
7 | CCCCc1ccc(NC(=O)c2ccc(NS(=O)(=O)C(C)(C)Cl)cc2)cc1 [Compound I-106] | 29 nM | 6.4 nM
8 | CCCCc1ccc(NC(=O)CCCCNS(=O)(=O)C(C)(C)CC)cc1 [Compound I-109] | 3.2 nM | 1.2 nM
9 | CCCCc1ccc(NC(=O)CCCCNS(=O)(=O)CC(C)C)cc1 [Compound I-110] | 13.6 nM | 4.3 nM
10 | CCCCc1ccc(NC(=O)CCCCNS(=O)(=O)C(C)CC)cc1 (stereo not drawn) [Compound I-111] | 6.1 nM | 1.8 nM
11 | CCCCc1ccc(NC(=S)CCCCNS(=O)(=O)CC(C)C)cc1 [Compound I-114] | 30 nM | 7 nM
12 | CCCCOc1ccc(NC(=O)CCCCNS(=O)(=O)C(C)CC)cc1 (stereo not drawn) [Compound I-116] | 11 nM | 1.2 nM
13 | CCCCc1ccc(NC(=O)N2CCC(NS(=O)(=O)C(C)(C)C)CC2)cc1 [Compound I-120, 4-t-butylsulfonylaminopiperidine-1-carboxylic acid(4-butylphenyl)amide] | 4.8 nM | 1.4 nM
14 | CCCCc1ccc(NC(=O)C23CCC(NS(=O)(=O)C(C)(C)C)(CC2)CC3)cc1 [Compound I-123] | 168 nM | 1.8 nM
15 | CC(C)(C)S(=O)(=O)NC1CCC(C(=O)Nc2cccc(OC(F)(F)C(F)F)c2)CC1 (stereo not drawn) [Compound I-126] | 13.2 nM | 0.6 nM
16 | CC(=O)c1ccc(NC(=O)C2CCC(NS(=O)(=O)C(C)(C)C)CC2)cc1 (stereo not drawn) [Compound I-127] | 30.4 nM | 1.4 nM
17 | CSc1ccc(NC(=O)C2CCC(NS(=O)(=O)C(C)(C)C)CC2)cc1 (stereo not drawn) [Compound I-128] | 10.2 nM | 1.3 nM
18 | CC(C)(C)S(=O)(=O)NC1CCC(C(=O)Nc2cccc3cc4ccccc4cc23)CC1 (stereo not drawn) [Compound I-129] | 174 nM | 2.1 nM
19 | CC(C)(C)S(=O)(=O)NC1CCC(C(=O)Nc2ccc(C(C#N)c3ccccc3)c(Cl)c2)CC1 (stereo not drawn) [Compound I-130] | 42.5 nM | 1.1 nM
20 | Cn1cc(Br)c(-c2cccc(NC(=O)C3CCC(NS(=O)(=O)C(C)(C)C)CC3)c2)n1 (stereo not drawn) [Compound I-131] | 34.8 nM | 1.1 nM
21 | COc1cc2c(cc1NC(=O)C1CCC(NS(=O)(=O)C(C)(C)C)CC1)oc1ccccc12 (stereo not drawn) [Compound I-132] | 30.4 nM | 2.2 nM
22 | CCC(C)COC(=O)/C=C/c1ccc(NC(=O)C2CCC(NS(=O)(=O)C(C)(C)C)CC2)cc1 (stereo not drawn) [Compound I-133] | 21.1 nM | 0.9 nM
23 | CC(C)(C)S(=O)(=O)NC1CCC(C(=O)Nc2cccc(Oc3ccccc3)c2)CC1 (stereo not drawn) [Compound I-134] | 10 nM | 0.5 nM

Row | Compound | IC50 (human NPY Y5 receptor [1]) | IC50 (human NPY Y5 receptor [2])
24 | CC(C)(C)S(=O)(=O)NC1CCC(C(=O)Nc2ccc3c(c2)C(=O)c2ccccc2-3)CC1 (stereo not drawn) [Compound I-135] | 22 nM | 0.7 nM
25 | CC(C)(C)S(=O)(=O)NC1CCC(C(=O)Nc2ccc(-c3ccc(C#N)cc3)cc2)CC1 (stereo not drawn) [Compound I-137] | 68.2 nM | 1.4 nM
26 | Cc1ccc2cc(NC(=O)C3CCC(NS(=O)(=O)C(C)(C)C)CC3)ccc2n1 (stereo not drawn) [Compound I-138] | 18.6 nM | 1 nM
27 | CC(C)(C)S(=O)(=O)NC1CCC(C(=O)Nc2cnc3ccccc3c2)CC1 (stereo not drawn) [Compound I-139] | 7.6 nM | 0.41 nM
28 | CC(C)(C)S(=O)(=O)NC1CCC(C(=O)Nc2ccc3ncccc3c2)CC1 (stereo not drawn) [Compound I-140] | 8.9 nM | 0.48 nM
29 | COc1ccc(NC(=O)C2CCC(NS(=O)(=O)C(C)(C)C)CC2)c(Sc2ccccc2)n1 (stereo not drawn) [Compound I-141] | 7.4 nM | 0.42 nM
30 | CC(C)(C)S(=O)(=O)NC1CCC(C(=O)Nc2nc(-c3cccc4ccccc34)cs2)CC1 (stereo not drawn) [Compound I-142] | 28 nM | 0.49 nM
31 | COC(=O)c1scc(NC(=O)C2CCC(NS(=O)(=O)C(C)(C)C)CC2)c1C(=O)OC (stereo not drawn) [Compound I-143] | 44 nM | 3.5 nM
32 | CC(C)(C)S(=O)(=O)NC1CCC(C(=O)Nc2cccnc2Oc2ccc(F)cc2F)CC1 (stereo not drawn) [Compound I-144] | 52 nM | 3.4 nM
33 | CC(C)(C)S(=O)(=O)NC1CCC(C(=O)Nc2cc(-c3ccco3)[nH]n2)CC1 (stereo not drawn) [Compound I-146] | 20 nM | 2.3 nM
34 | COc1ccc(CCNC(=O)C2CCC(NS(=O)(=O)C(C)(C)C)CC2)cc1OC (stereo not drawn) [Compound I-147] | 63 nM | 7.1 nM
35 | CCN(CCNC(=O)C1CCC(NS(=O)(=O)C(C)(C)C)CC1)c1ccccc1 (stereo not drawn) [Compound I-149] | 15 nM | 0.83 nM
36 | CC(C)(C)S(=O)(=O)NC1CCC(C(=O)NCCSCc2c(Cl)cccc2Cl)CC1 (stereo not drawn) [Compound I-150] | 5.2 nM | 0.17 nM
37 | CC(C)(C)S(=O)(=O)NC1CCC(C(=O)NCCSCc2c(F)cccc2Cl)CC1 (stereo not drawn) [Compound I-151] | 2.6 nM | 0.17 nM
38 | CSc1sc(C(=O)NNC(=O)C2CCC(NS(=O)(=O)C(C)(C)C)CC2)c2c1C(O)CCC2 (stereo not drawn) [Compound I-153] | 29 nM | 1.7 nM
39 | CC(C)(C)S(=O)(=O)NC1CCC(C(=O)Nc2ccc3c(c2)CCC3=O)CC1 (stereo not drawn) [Compound I-156] | 17 nM | 0.81 nM
40 | CCOc1cccc(NC(=O)C2CCC(NS(=O)(=O)C(C)(C)C)CC2)c1 (stereo not drawn) [Compound I-160] | 8.8 nM | 0.61 nM
41 | CCCCOc1cccc(NC(=O)C2CCC(NS(=O)(=O)C(C)(C)C)CC2)c1 (stereo not drawn) [Compound I-161] | 3.1 nM | 0.49 nM
42 | COCOc1cccc(NC(=O)C2CCC(NS(=O)(=O)C(C)(C)C)CC2)c1 (stereo not drawn) [Compound I-162] | 32 nM | 1.7 nM
43 | CC(C)(C)S(=O)(=O)NC1CCC(C(=O)Nc2cccc(O)c2)CC1 (stereo not drawn) [Compound I-163] | 83 nM | 2.3 nM
44 | CCCCOc1ccc(NC(=O)C2CCC(NS(=O)(=O)C(C)(C)C)CC2)cc1 (stereo not drawn) [Compound I-164] | 5.9 nM | 0.71 nM
45 | CCCCOc1ccc(NC(=O)C2CCC(NS(=O)(=O)C(C)(C)C)CC2)c(O)c1 (stereo not drawn) [Compound I-165] | 47 nM | 0.44 nM
